Source: patent US20090155349A1, “METHODS OF TREATING INFLUENZA VIRAL INFECTIONS” (priority 2006, published 2009)

What was measured:
MDCK cells = test: Toxic effects in MDCK cells
C3HA murine fibroblasts = test: TNF-α-induced apoptosis, Rhodamine 123 fluorescence; conditions: M4N 50 μM, TNF-α 20 ng/ml + cycloheximide 10 μg/ml, 6 hours
Procedure: C3HA murine fibroblasts were incubated with human recombinant TNF-α (20 ng/ml), cycloheximide (CHI) (10 μg/ml), or both, in the absence/presence of NDGA (25 μM) or M4N (50 μM). All compounds were added simultaneously and treatments were for 6 hours. Rhodamine 123 was added during the last half hour and fluorescence measured using a BMG POLARstar galaxy flourimeter.
More specifically, C3HA cells were cultured in Dulbecco's modified Eagles medium supplemented with 10% fetal bovine serum and maintained at 37° C. in 8% carbon dioxide. […] For apoptosis assays, cells were harvested by trypsinization, centrifuged, counted and 1.5×10^4 cells added to each well of a flat bottom 96 well microtiter plate in culture media. Cells were allowed to adhere at least six (6) hours prior to the addition to TNF (20 ng/ml), CHI (10 μg/milliliter), or both, in the absence/presence of nordihydroguaiaretic acid (25 μM) or M4N (50 μM). […] Both were dissolved in culture media. […] Rhodamine 123 is sequestered by energized mitochondria and live healthy cells display strong mitochondrial fluorescence. […] Fluorescence intensity was then determined using a BMG POLARstar galaxy microplate reader with excitation and emission wavelengths set at 492 and 538 nanometers, respectively. All points were performed in triplicate and percentage cell death was calculated from the following formula: […]

influenza virus A/WS/33 = test: microbe, parasite or virus in culture; type: cell-based

SMILES: COc1ccc(C[C@@H](C)[C@@H](C)Cc2ccc(OC)c(OC)c2)cc1OC [M4N, meso-1,4-bis(3,4-dimethoxyphenyl)-2,3-dimethylbutane]
- highest concentration that could be used without causing toxic effects (MDCK cells): 25 µM
- inhibition of TNF-α-induced apoptosis (C3HA murine fibroblasts): strongly inhibits
- inhibitory effect on virus titer (log plot) (influenza virus A/WS/33; EM-1421 25 μM, MDCK cells): less than 1 log unit
- inhibition at 25 µM (influenza virus A/WS/33; MDCK, 0.5 h, read-out: inhibition of A/WS/33 replication in MDCK cells): ~75%
